Source: patent publication US6890906B2, “Method for controlling angiogenesis in animals” (Glycogenesys, Inc., priority 2001, dated 2005)
Values joined by “and” are separate entries in the source; they are usually repeats but may differ in a detail not shown here. Equal entries are not always repeated. Where two headings read alike, the source gives them in different places.

Legend:
[1] = tested on: human umbilical vein endothelial cells (HUVEC); conditions: for AVERAGE cell count: average of runs; for Cell count (cells that migrated through the membrane): single runs, 4 hours, 37° C.
Description: In a first portion of the experimental series, the effect of the chemoattractant vascular endothelial growth factor (VEGF) on human umbilical vein endothelial cells (HUVEC) was quantified. The experiment was carried out in a transwell plate, and in preparation therefor, HUVEC cells were grown to approximately 80% confluency. The cells were suspended in basal media and placed in a transwell plate on fibronectin coated membrane inserts at 50,000 cells per insert. Varying concentrations of VEGF were added to the bottom chamber of the transwell plate, and the plates incubated for 4 hours at 37° C. with a 5% CO2 atmosphere. Following incubation, the membranes were fixed and stained. Nonmigrated cells were removed by mechanical abrasion and cells that migrated through the membrane were counted. […] Three runs were made.

[2] = tested on: human umbilical vein endothelial cells (HUVEC); experiment: Inhibition of VEGF-induced HUVEC cell migration by modified pectin in transwell plate; format: cell-based; conditions: VEGF 30 ng/ml Only (positive control, no GCS-100)
Description: Following incubation, the membranes were fixed and stained. […] Three runs were made.
The material comprised a modified pectin which is commercially available from GlycoGenesys, Inc. of Boston, Mass., under the designation GCS-100. In this experimental series, HUVEC cells were incubated in a transwell plate with VEGF, and varying concentrations of the therapeutic material, under conditions as described hereinabove. The concentration of VEGF was 30 ng/ml. In one group of experiments, cells were incubated with VEGF in the absence of the carbohydrate material, and these experiments served as a positive control. In another group of experiments, cells were incubated with growth medium and no VEGF or therapeutic carbohydrate, and this group served as a negative control. In the remaining experiments, concentrations of the GCS-100 ranging from 0.001% to 0.1% were employed.

vascular endothelial growth factor [VEGF]
AVERAGE cell count ([1]; 1 ng/ml VEGF): 734
Cell count (cells that migrated through the membrane) ([1]; 1 ng/ml VEGF): 607 and 766 and 830
AVERAGE cell count ([1]; 3 ng/ml VEGF): 1043
Cell count (cells that migrated through the membrane) ([1]; 3 ng/ml VEGF): 950 and 1136
AVERAGE cell count ([1]; 10 ng/ml VEGF): 1218
Cell count (cells that migrated through the membrane) ([1]; 10 ng/ml VEGF): 1144 and 938 and 1573
AVERAGE cell count ([1]; 30 ng/ml VEGF): 1162
Cell count (cells that migrated through the membrane) ([1]; 30 ng/ml VEGF): 898 and 1448 and 1140
AVERAGE cell count ([1]; 100 ng/ml VEGF): 1210
Cell count (cells that migrated through the membrane) ([1]; 100 ng/ml VEGF): 1650 and 901 and 1078
chemotactic effect ([1]; VEGF concentrations of 10-30 ng/ml): strong chemotactic effect
AVERAGE cell count ([2]; average): 1244
Cell count (migrated cells) ([2]; single runs): 1322 and 1167
